Source: US7148250B2, “Indoles as NAALADase inhibitors” (Guilford Pharmaceuticals Inc., priority 2001, dated 2006)
Values belong to the compound of their own block, whether it stands above or below them. Where a SMILES comes first, the peptide text is derived from it.

Key:
[1] = test system: NAALADase; details: read-out: Km of NAALADase for NAAG; cited from earlier work
[2] = test system: STZ-diabetic rats; assay: Neuropathic pain in STZ model (thermal withdrawal latency); assay type: in vivo, rat; details: 10 mg/kg i.p. daily, treatment from 45 days post STZ
Description: Male Sprague-Dawley rats (200–225 g) were rendered diabetic by intravenous administration of streptozotocin (“STZ”, 70 mg/kg in phosphate buffered saline). Diabetic animals were divided into five groups: one group receiving Compound A (10 mg/kg or 1 mg/kg), Compound D (10 mg/kg or 1 mg/kg) or vehicle. Another group of animals (non-STZ treated) served as non-diabetic controls. Drug/vehicle treatment was started in diabetic animals 45 days post-STZ administration. STZ-induced diabetic rats were tested for sensitivity to a heat source as soon as blood glucose levels rose to 320 mg/dl or above (30 days post STZ). The rats were then acclimated to a Hargreaves apparatus and thermal nociception was monitored using an infrared heat source directed into the dorsal surface of the hindpaw, and the time taken for the animal to remove its paw noted to the nearest 0.1 seconds (see Hargreaves et al., supra, for detailed experimental method). The intensity of the beam source was adjusted such that the mean latency for control animals (non-STZ treated) was approximately 10 seconds. Each animal was tested 8 times and the mean difference score (between mean non-diabetic control latency and mean diabetic latency) are graphically presented in FIGS. 7A and 7B.

[3] = test system: BB/W diabetic rats; assay: Progression of neuropathic pain and nerve conduction deficits in BB/W model; assay type: in vivo, rat
Description: Male BB/W rats (BRI, Mass) spontaneously develop a cell mediated autoimmune destruction of pancreatic B cells, resulting in onset of insulin-dependent (Type I) diabetes (Guberski 1994). […] This renders them valuable for experimental trials of new compounds for future treatments of this major disorder. In the present study, Compound D and Compound A were examined for their ability to alter the progression of diabetic neuropathy. The rats received daily injection of Compound D or Compound A (10 mg/kg i.p.) or vehicle, starting at the onset of diabetes (hyperglycemia) and up to 6 months thereafter. Another group of non-diabetic rats also receiving vehicle were tested. All animals were continuously monitored for body weight, urine volume, blood sugar and glycated haemoglobin. In the first month of the study, all animals were tested for thermal nociception in a Hargreaves apparatus, weekly. After the first month this was done biweekly and then monthly. The testing consists of directing an infrared heat source onto the dorsal surface of the rat hindpaw and noting the time taken for the animal to remove its paw (see Hargreaves et al., supra, for a description of the experimental method). Each animal was tested 8 times and the mean withdrawal latency noted.
Nerve conduction velocity was also measured every two weeks through the first eight weeks of treatment and every month thereafter through to the six months of treatment (see De Koning et al., Peptides, Vol. 8, No. 3, pp. 415–22 (1987) for a description of the experimental method). […] This was apparent starting at 8 weeks of treatment and persisted to a similar degree through to the six month termination point of the study.

[4] = test system: STZ-diabetic rats; assay: Diabetic neuropathy in STZ model (nerve conduction velocity); assay type: in vivo, rat; details: 10 mg/kg daily, 4, 8 and 12 weeks
Description: Motor and sensory nerve conduction velocity was also measured in STZ-diabetic animals after 4, 8 and 12 weeks of treatment (see De Koning et al., supra, for a description of the experimental method). Briefly, stimulating needle electrodes were inserted close to the sciatic and tibial nerves with recording electrodes being placed subcutaneously over the distal foot muscles, in anesthetized rats.

[5] = test system: transgenic G1H mice; assay: Effect on onset of ALS in transgenic FALS mice; assay type: in vivo, mouse
Description: The effect of NAALADase inhibitors on the onset of ALS was tested using the transgenic mice model of familial Amyotrophic Lateral Sclerosis (FALS), which is detailed in Gurney, M., Annals of Neurology (1996) 39:147–157, and otherwise well known in the art. One month old transgenic G1H mice were treated with daily intraperitoneal injections of a vehicle (50 mM HEPES-buffered saline) or a NAALADase inhibitor (50 mg/kg Compound A). Clinical symptoms of the mice were monitored daily. The onset of clinical disease was scored by examining each mouse for its shaking of limbs when suspended in the air by its tail, cross spread of spinal reflexes, hindlimb paralysis, body weight and wheel running activity.

[6] = test system: Brown Norway rats with unilateral elevation of intraocular pressure; assay: Experimental rat glaucoma (IOP elevation), optic nerve fiber counting; assay type: in vivo; details: 8 week group, 10 mg/kg i.p. daily
Description: (§1) All experiments complied with the Association for Research in Vision and Ophthalmology Statement for the Use of Animals in Ophthalmic and Vision Research. 82 male Brown Norway rats (Rattus norvegicus), each weighing approximately 250 gm, were treated using procedures approved by the Animal Care Committee of the Johns Hopkins University School of Medicine. The rats were housed with a 12 hour light/12 hour dark cycle and fed ad libitum.
EXPERIMENTAL GLAUCOMA: Unilateral elevation of intraocular pressure (“IOP”) was produced in 56 rats by microinjection of hypertonic saline into episcleral veins, following procedures described in Morrison, J. et al., IOVS (March 1998) 39:526–531. Beginning on the day of IOP elevation, the rats were treated daily with intraperitoneal injections of either a vehicle (23 rats with 50 mM HEPES-buffered saline) or a NAALADase inhibitor (11 rats with 10 mg/kg of Compound A and 22 rats with 10 mg/kg of Compound B). 11 saline treated rats, 11 Compound A treated rats and 11 Compound B treated rats were sacrificed at 8 weeks, and the remaining rats at 12 weeks, after initial IOP elevation.
(§2) OPTIC NERVE COUNTING: The rats were sacrificed by exsanguination under deep pentobarbital anesthesia. They were perfused through the heart with 2% paraformaldehyde/2% glutaraldehyde in 0.1 M phosphate buffer, pH 7.2, and the eyes with attached optic nerves were removed. A cross-section of the optic nerve from both experimental (glaucoma or transection) and control eyes was removed 1.5 mm posterior to the globe, 1 mm in thickness, and post-fixed in 2% osmium tetroxide in buffer. These were processed into epoxy resin, sectioned at 1 micron and stained with toluidine blue.
(§3) The area of the optic nerve cross-section was measured by outlining its outer border at 10× magnification on an image analysis system (Universal Imaging Corp., Westchester, Pa.) with Synsys digital camera and Metamorph software. Three area measurements were taken and the mean value was determined. To measure the density and fiber diameter distributions, images were captured with a 100× phase contrast objective from 10 different areas of each nerve. These were edited to eliminate non-neural objects and the size of each axon internal to the myelin sheath (its minimum diameter) and the density of axons/square mm were calculated for each image and nerve. The mean density was multiplied by total nerve area to yield fiber number for each nerve. The total fiber number in glaucoma or transection nerves was compared to the normal, fellow eye of each rat to yield a percent loss value. The number of axons counted among the 10 images was an approximately 20% sample of the 80–90,000 axons in normal rat nerves. The person measuring axon number was masked to the protocol conducted on the nerves.

[7] = test system: Brown Norway rats with unilateral optic nerve transection; assay: Optic nerve transection, optic nerve fiber counting; assay type: in vivo, Rattus norvegicus; details: for FIBER NUMBER ± SEM / PERCENT DIFFERENCE ± SEM in fiber number between transected and normal eye: 10 mg/kg i.p. daily
Description: as §1
OPTIC NERVE TRANSECTION: The optic nerve was transected unilaterally in 26 rats under intraperitoneal pentobarbital anesthesia. The conjunctiva was opened with scissors and the optic nerve exposed by traction on extraocular muscles. The transection was performed with microscissors 5 mm posterior to the globe, with specific attention to avoidance of injury to major ocular blood vessels. Immediately after transection, the retina was examined ophthalmoscopically to assure that the retinal arterial blood supply was not disrupted. The conjunctiva was closed with absorbable suture and the eye dressed with antibiotic ointment. Beginning on the day of transection, the rats were treated daily with intraperitoneal injections of either a vehicle (9 rats with 50 mM HEPES-buffered saline) or a NAALADase inhibitor (8 rats with 10 mg/kg of Compound A and 9 rats with 10 mg/kg of Compound B). 5 saline treated rats, 3 Compound A treated rats and 4 Compound B treated rats were sacrificed at 2 weeks, and the remaining rats at 4 weeks, after transection.
as §2, §3

[8] = test system: ischemic cell cultures; assay: Effect of NAALADase inhibition on TGF-β in in vitro ischemia model; assay type: cell-based
Description: A NAALADase inhibitor, Compound C, was added to ischemia cell cultures to determine its effect on TGF-β levels during stroke.
TGF-β neutralizing antibodies were then added to the ischemic cell cultures.

[9] = test system: rats subjected to middle cerebral artery occlusion; assay: Effect of NAALADase inhibition on TGF-β in in vivo ischemia model (MCAO); design: species or system rat
Description: The effect of TGF-β neutralizing antibodies on the neuroprotective effect of Compound C was also studied in rats following MCAO.

[10] = test system: chronic constrictive injury-induced rats; assay: Neuropathic pain in chronic constriction injury (CCI) model; assay type: in vivo, rat; details: 50 mg/kg i.p. daily from 10 days post surgery, significant from 11 days of treatment
Description: Sciatic nerve ligation, consisting of 4 ligatures tied loosely around the sciatic nerve at 1 mm intervals proximal to the nerve trifurcation, was performed on rats. […] The rats were habituated to a Hargreaves apparatus. An infrared heat source was directed onto the dorsal surface of each rat's hindpaws and the time taken for the rat to withdraw its paws was noted. The difference in scores between the latency of the response for the paw on the operated side versus the paw on the unoperated control side was determined.
The rats received either Compound C (50 mg/kg i.p. daily) or a vehicle starting 10 days post surgery. […] Normal (unoperated) rats had approximately equal latencies for both paws. This effect was significant starting at 11 days of drug treatment and persisted through to the end of the study (for 21 days of daily dosing).

[11] = 2 weeks survival after transection
[12] = 4 weeks survival after transection

SMILES: CC(=O)N[C@@H](CC(=O)O)C(=O)N[C@@H](CCC(=O)O)C(=O)O [NAAG, N-acetyl-aspartyl-glutamate] (Ac-Asp-Glu-OH)
Km [1]: 0.54 µM

DISEASE ONSET FOR COMPOUND A TREATED MICE ([5]; Study 1, 50 mg/kg i.p. daily): 221 days | DISEASE ONSET FOR COMPOUND A TREATED MICE ([5]; Study 2, 50 mg/kg i.p. daily): 166 days
SMILES: O=C(O)CCC(CP(=O)(O)Cc1c(F)c(F)c(F)c(F)c1F)C(=O)O (centres unmarked) [Compound A]
hyperalgesic response (withdrawal latency difference score) [2]: completely reversed | nerve conduction velocity deficits versus diabetic vehicle controls ([3]; 10 mg/kg daily, from 8 weeks to six months): significantly less severe nerve conduction deficits | withdrawal latency versus diabetic vehicle-treated rats ([3]; 10 mg/kg i.p. daily, from 4 weeks through six months of treatment): longer withdrawal latencies | motor and sensory nerve conduction velocities [4]: tended to improve (increase) | DIFFERENCE in disease onset, treated versus vehicle ([5]; Study 1): 32 | DIFFERENCE in disease onset, treated versus vehicle ([5]; Study 2): 25 | FIBER NUMBER ± SEM [6]: 79156 ± 2436 | PERCENT DIFFERENCE ± SEM in fiber number between glaucoma and normal eye ([6]; positive = fewer fibers in glaucoma eye): −1.82 ± 2.92% | remaining axons relative to saline-treated rats ([7]; 2 weeks after transection): 3 times | FIBER NUMBER ± SEM [7, 11]: 26,426 ± 13,293 | PERCENT DIFFERENCE ± SEM in fiber number between transected and normal eye [7, 11]: 65.3 ± 17.8% | FIBER NUMBER ± SEM [7, 12]: 13,599 ± 3,519 | PERCENT DIFFERENCE ± SEM in fiber number between transected and normal eye [7, 12]: 82.4 ± 4.0%

SMILES: O=C(O)CCC(CP(=O)(O)O)C(=O)O (centres unmarked) [Compound C, 2-(phosphonomethyl)-pentanedioic acid]
TGF-β1 concentrations in ischemic cell cultures ([8]; FIG. 1): increased concentrations | TGF-β2 concentrations in ischemic cell cultures ([8]; FIG. 2): increased concentrations | neuroprotective effect after addition of TGF-β neutralizing antibodies ([8]; in vitro ischemia model, FIG. 3): blocked | neuroprotective effect after addition of FGF antibody ([8]; in vitro ischemia model, FIG. 4): did not block | neuroprotective effect in vivo with TGF-β neutralizing antibodies ([9]; FIG. 5): significantly attenuated | TGF-β1 levels during occlusion and reperfusion ([9]; microdialysis, FIG. 6): significant rise | difference scores between the two paws (withdrawal latency) [10]: dramatically normalized
